Activity calls are given as the source filed them. The calls are words filed in the database; no cut-off is given here.
Legend:
[1] = target: Phosphodiesterase, PDE1/PDE5 (Homo sapiens, UniProt O76074+P54750+Q01064+Q14123); assay: Inhibitory activity against phosphodiesterase 1/5 (PDE1/5) extracted from guinea pig trachea smooth muscle cells by using radioligands [3H]-cAMP or [3H]cGMP; assay type: tissue-based, Cavia porcellus; details: target entry is the homologue from another species
[2] = target: Phosphodiesterase 4 (Homo sapiens, UniProt P27815+Q08499+Q07343+Q08493); assay: Inhibition of phosphodiesterase 4 extracted from human U937 cells by using radioligands [3H]-cAMP or [3H]cGMP.; assay type: cell-free; details: u-937
[3] = target: Phosphodiesterase 3 (Homo sapiens, UniProt Q14432+Q13370); assay: Inhibition of Phosphodiesterase 3 extracted from dog aorta smooth muscle cells by using radioligands [3H]cAMP or [3H]-cGMP.; set-up: species or system Canis lupus familiaris; details: target entry is the homologue from another species
[4] = target: Phosphodiesterase 4 (Rattus norvegicus, UniProt P14270+P14646+P14644+P54748); assay: Displacement of [3H]rolipram from rat brain membrane suspensions; assay type: functional, tissue-based
[5] = tested on: Rattus norvegicus; assay: Inhibition of antigen-induced lung eosinophilia in ovalbumin sensitized brown-norway rats after oral administration; assay type: functional
[6] = tested on: Canis familiaris; assay: Emetic effect in dogs administered at 3 mg/kg intravenously (No effect); assay type: functional, organism-based; set-up: dose 3 mg/kg; details: Canis lupus familiaris
[7] = tested on: Canis familiaris; assay: Emetic effect in dogs administered at 0.03 mg/kg intravenously (No effect); assay type: functional, organism-based; set-up: dose 0.03 mg/kg; details: Canis lupus familiaris
[8] = tested on: Canis familiaris; assay: Emetic effect in dogs administered at 3 mg/kg intravenously (no effect); assay type: functional, organism-based; set-up: dose 3 mg/kg; details: Canis lupus familiaris

With `O=C(N[C@@H]1N=C(c2ccccc2)c2cccc3c2N(CC3)C1=O)c1cc2ccccc2cn1` the IC50 [1] was > 100 µM, the IC50 [2] was 4.2 µM and the IC50 [3] was > 100 µM.
With `COc1ccccc1C(=O)N[C@@H]1N=C(c2ccccc2)c2cc(C)cc3c2N(CC3)C1=O` the IC50 [1] was 71.7 µM, the IC50 [2] was 0.76 µM and the IC50 [3] was > 100 µM.
`Cc1cc2c3c(c1)C(c1ccccc1)=N[C@@H](NC(=O)c1cc(Cl)c(N)c(Cl)c1)C(=O)N3CC2` was tested, and the IC50 [1] was > 100 µM, the IC50 [2] was 0.33 µM and the IC50 [3] was 17.5 µM.
`COc1ccc(C(=O)N[C@@H]2N=C(c3ccccc3)c3cc(C)cc4c3N(CC4)C2=O)c(OC)c1` was tested, and the IC50 [2] was 0.96 µM and the IC50 [3] was 7.85 µM.
With `COc1cc2c3c(c1)C(c1ccccc1)=N[C@@H](NC(=O)c1cc4ccccc4[nH]1)C(=O)N3CC2` the IC50 [1] was 100 µM, the IC50 [2] was 0.65 µM and the IC50 [3] was > 100 µM.
In the case of `O=C(N[C@H]1N=C(c2ccccc2)c2cccc3c2N(CC3)C1=O)c1cc2ccccc2[nH]1`, the IC50 [1] is reported as 100 µM, the IC50 [2] is reported as 100 µM and the IC50 [3] is reported as > 100 µM.
`O=C(N[C@@H]1N=C(c2ccccc2F)c2cccc3c2N(CC3)C1=O)c1cc2ccccc2[nH]1` was tested, and the IC50 [2] was > 100 µM and the IC50 [3] was > 100 µM.
In the case of `COc1cc2c3c(c1)C(c1ccccc1)=N[C@@H](NC(=O)c1cc4ccccc4cn1)C(=O)N3CC2`, the IC50 [1] is reported as 65.3 µM, the IC50 [2] is reported as 1.62 µM and the IC50 [3] is reported as 82 µM.
For `Cc1cc2c3c(c1)C(c1ccccc1)=N[C@@H](NC(=O)c1ccc(Cl)cc1)C(=O)N3CC2`, the IC50 [1] was > 100 µM, the IC50 [2] was 1.25 µM and the IC50 [3] was 27 µM.
`Cc1cc2c3c(c1)C(c1ccccc1)=N[C@@H](NC(=O)c1cc4ccccc4cn1)C(=O)N3CC2` was tested, and the IC50 [4] was > 3 µM, the IC50 [1] was > 100 µM and the IC50 [2] was 2.6 µM. The IC50 [3] was > 100 µM, the ED50 [5] was 10.7 mg/kg and the Activity [6] was “inactive”.
`COc1ccc(C2CNC(=O)C2)cc1OC1CCCC1` (stereo not given) was tested, and the Activity [7] was “inactive”.
Work on `COc1cc2c3c(c1)C(c1ccccc1)=N[C@@H](NC(=O)c1ccc(Cl)cc1)C(=O)N3CC2` yielded an IC50 [1] of 40 µM, an IC50 [2] of 1.8 µM and an IC50 [3] of 62 µM.
In the case of `O=C(NC1N=C(c2ccccc2)c2ccccc2NC1=O)c1cc2ccccc2[nH]1` (stereo not given), the IC50 [2] is reported as > 100 µM and the IC50 [3] is reported as > 100 µM.
`Cc1cc2c3c(c1)C(c1ccccc1)=N[C@@H](NC(=O)c1ccc(Cl)cc1Cl)C(=O)N3CC2` was tested, and the IC50 [1] was > 100 µM, the IC50 [2] was 0.76 µM and the IC50 [3] was 17.5 µM.
`Cc1cc2c3c(c1)C(c1ccccc1)=N[C@@H](NC(=O)c1ccncc1)C(=O)N3CC2` was tested, and the IC50 [1] was > 100 µM, the Activity [8] was “inactive” and the IC50 [2] was 1.14 µM. The IC50 [3] was > 100 µM and the ED50 [5] was 6.9 mg/kg.
In the case of `Cc1cc2c3c(c1)C(c1ccccc1)=N[C@@H](NC(=O)c1nnc4cc(C)nn4c1C)C(=O)N3CC2`, the IC50 [1] is reported as > 100 µM, the IC50 [2] is reported as 0.71 µM and the IC50 [3] is reported as > 100 µM.
With `O=C(NC1N=C(c2ccccc2)c2cccc3c2N(CCC3)C1=O)c1cc2ccccc2[nH]1` (stereo not given) the IC50 [1] was > 100 µM, the IC50 [2] was > 100 µM and the IC50 [3] was > 100 µM.
For `Nc1c(Cl)cc(C(=O)N[C@@H]2N=C(c3ccccc3)c3cccc4c3N(CC4)C2=O)cc1Cl`, the IC50 [1] was > 100 µM, the IC50 [2] was 0.63 µM and the IC50 [3] was > 100 µM.
With `O=C(N[C@@H]1N=C(c2ccccc2)c2cc(O)cc3c2N(CC3)C1=O)c1cc2ccccc2cn1` the IC50 [1] was > 100 µM, the IC50 [2] was 0.41 µM and the IC50 [3] was > 3.5 µM.
In the case of `O=C(NC1N=C(c2ccccc2F)c2cc(Cl)cc3c2N(CC3)C1=O)c1cc2ccccc2[nH]1` (stereo not given), the IC50 [2] is reported as > 100 µM and the IC50 [3] is reported as > 100 µM.
`Cc1cc2c3c(c1)C(c1ccccc1)=N[C@@H](NC(=O)c1cc(Cl)cc(Cl)c1)C(=O)N3CC2` was tested, and the IC50 [1] was > 100 µM, the IC50 [2] was 1.15 µM and the IC50 [3] was 43.7 µM.
`O=C(N[C@@H]1N=C(c2ccccc2)c2cccc3c2N(CC3)C1=O)c1cc2ccccc2[nH]1` was tested, and the IC50 [1] was > 100 µM, the IC50 [2] was 4 µM and the IC50 [3] was > 100 µM.

From ChEMBL document CHEMBL1132852, “Synthesis and structure-activity relationships of 4-oxo-1-phenyl-3,4,6,7-tetrahydro-[1,4]diazepino[6,7,1-hi]indoles: novel PDE4 inhibitors” (Bioorg Med Chem Lett, 2000)
